Data on four molecules can be found in patent US20100285959A1, “HERBICIDAL MIXTURES” (priority 2006, published 2010).

For one data set, the system named is kochia (KCHSC). Put plainly: Test 23 growth chamber, postemergence. The following applies: 21 DAA. It counts as in vivo, Kochia scoparia. The method, then: (§1) A test was conducted to evaluate the effects on winter barley (HORVW, Hordeum vulgare L.), winter wheat (TRZAW, Triticum aestivum L.), and several weed species of mixtures of Compound 2 with the commercial herbicides (2,4-dichlorophenoxy)acetic acid (2,4-D) and (4-chloro-2-methylphenoxy)acetic acid (MCPA), auxin mimics. […] Plants were treated postemergence at the 2-4 leaf growth stage, and each treatment was replicated three times. […] Plants were watered as needed. […] Results are means of the three replicates.

The subject of another data set is redroot pigweed (AMARE). Kind of data set: Test 23 growth chamber, postemergence. The format is in vivo, Amaranthus retroflexus. Conditions: 21 DAA. The method, then: as §1
The test system of a further data set is winter barley (HORVW). Put plainly: Test 22 growth chamber, postemergence. It counts as in vivo, Hordeum vulgare. Conditions: 25 DAA. The method, then: A test was conducted to evaluate the effects on winter barley (HORVW, Hordeum vulgare L.), winter wheat (TRZAW, Triticum aestivum L.), and several weed species of mixtures of Compound 2 with the commercial herbicides (2,4-dichlorophenoxy)acetic acid (2,4-D) and (4-chloro-2-methylphenoxy)acetic acid (MCPA), auxin mimics. […] Plants were treated postemergence at the 2-4 leaf growth stage, except KCHSC, SASKR and STEME which were in the 4-8 leaf growth stage. Each treatment was replicated one time. […] Plants were watered as needed. […] Results are from single replicates.

In a further data set the test system is slender amaranth (AMAVI). Put plainly: Test 12 field trial, preemergence. The format is in vivo, Amaranthus viridis. Conditions: Cpd 2 or Cpd 1 62 g a.i./ha, Diuron 2000 g a.i./ha. Further details: scale not given here. The source says: In early-mid spring season, corn seeds (hybrid ‘Pioneer 3041’) were planted 5 cm deep and sugarcane nodes (variety RB-72.454) were planted 10 cm deep in separate plots in a clay soil having 2.6% organic matter and a pH of 5.6. Plots were 24 m long by 1.5 m wide with rows spaced 80 cm (corn) or 140 cm (sugarcane) apart. Corn seeds were spaced 15 cm apart and sugarcane nodes were spaced 10 cm apart within the rows. At the same time, weed seeds were broadcast over the surface of separate plots without a crop, one weed species per plot. The weed plots were rotary tilled to incorporate the weed seeds to a variety of depths. The field was managed using conventional tillage practices.

The subject of the next data set is common chickweed (STEME). Kind of data set: Test 3 field trial, emerged weeds before corn planting. It counts as in vivo, Stellaria media. The following applies: Cpd 2 100, glyphosate 1540, paraquat 1150 g a.i./ha, alone or combined. From the text: Corn seeds (hybrid ‘Pioneer 33J56’) were planted in early spring season, 3.8 cm deep in a silt loam soil having 2.4% organic matter and a pH of 6. Plots were 6.1 m long by 2.7 m wide with rows spaced 91.4 cm apart. The field was managed using no-till practices. […] Compound 2 and paraquat treatments, alone and in combination, also included a surfactant. Glyphosate, alone and with Compound 2, included ammonium sulfate in the treatment mixture. […] The effects on the weeds in the treated plots and untreated control plots were recorded 30, 42, 46 and 68 days after application. Most of the weed species could not be evaluated at every timing. Corn response was not evaluated because the growth was highly variable depending on the efficacy of the weed control treatments. […] Results are the means of the three replicates.

The subject of data set [1] is henbit deadnettle (LAMAM). Put plainly: Test 9 field trial, emerged weeds before corn planting. It counts as in vivo, Lamium amplexicaule. The following applies: g a.i./ha: Cpd 2 100, Glyphosate 1540, Paraquat 1150. The method, then: (§2) Corn seeds (hybrid ‘Pioneer 34M91 RR’) were planted in mid spring season, about 3.8 cm deep in a silty clay loam soil having a pH of 6.7. Plots were 9.1 m long by 3.0 m. The field was managed using no-till practices. […] Compound 2 and paraquat treatments, alone and in combination, also included a surfactant. Glyphosate, alone and with Compound 2, included ammonium sulfate in the treatment mixture. […] The effects on the weeds in the treated plots and untreated control plots were recorded 7, 14, 23, 30 and 57 days after application. Most of the weed species could not be evaluated at every timing. Corn response was only evaluated 57 days after application. […] Results are the means of the three replicates.

The test system of the next data set is sorghum (SORVU). Put plainly: Test 28 greenhouse, postemergence. The format is in vivo, Sorghum vulgare. Conditions: 26 DAA. The method, then: A greenhouse test was conducted to evaluate the effects on the plant species corn (ZEAMD, Zea mays ssp. indentata), sorghum (SORVU, Sorghum vulgare L.), dry-seeded rice (ORYSA, Oryza sativa L.), wheat (TRZAW, Triticum aestivum L.), ivyleaf morningglory (IPOHE, Ipomoea hederacea (L.) JACQ.), and barnyardgrass (ECHCG, Echinochloa crus-galli (L.) P. BEAUV.), of mixtures of Compound 2 with isoxadifen-ethyl. Corn, sorghum, rice, wheat, ivyleaf morningglory and barnyardgrass seeds were planted in RediEarth, a commercial potting medium. […] Corn plants were treated postemergence at the V2 growth stage, and sorghum, rice, wheat, ivyleaf morningglory, and barnyardgrass plants were treated postemergence at the 3-leaf stage. […] Each treatment was replicated three times. […] Plants were watered as needed.

The subject of data set [2] is common lambsquarters (CHEAL). Kind of data set: Test 9 field trial, emerged weeds before corn planting. The format is in vivo, Chenopodium album. The following applies: 57 DAA; g a.i./ha: Cpd 2 100, Glyphosate 1540, Paraquat 1150. The method, then: as §2
The test system of a further data set is field violet (VIOAR). Put plainly: Test 24 growth chamber, postemergence. The following applies: 17 DAA. The format is in vivo, Viola arvensis. The method, then:
Plants were treated postemergence at the 2-4 leaf growth stage, and each treatment was replicated three times. […] Plants were watered as needed. […] Results for barley and wheat are the means across varieties of the three replicates, and results for the weeds are the means of the three replicates.

In a further data set the test system is velvetleaf (ABUTH). Kind of data set: Test 18 greenhouse, post- and preemergence. Conditions: 15 DAA.
The mark [3] stands for this setting: 2,4-D or MCPA alone 250 g a.i./ha.

Turning to `O=C(O)COc1ccc(Cl)cc1Cl` [2,4-D, (2,4-dichlorophenoxy)acetic acid], in the data set with kochia (KCHSC) (setting [3]), the “Postemergence KCHSC Obs” value is reported as 70. The “Postemergence AMARE Obs” value in the data set with redroot pigweed (AMARE) (setting [3]) was 67. Moreover, in the data set on winter barley (HORVW) (setting [3]), the “Postemergence HORVW Obs” value turned out to be 10.
In the case of `Nc1nc(C2CC2)nc(C(=O)O)c1Cl` [Compound 1, 6-amino-5-chloro-2-cyclopropyl-4-pyrimidinecarboxylic acid], the “AMAVI Obs” value was 90 with slender amaranth (AMAVI) (15 DAA), 60 with slender amaranth (AMAVI) (29 DAA), 40 with slender amaranth (AMAVI) (48 DAA) and 40 in the data set on slender amaranth (AMAVI) (61 DAA).
Take `COC(=O)c1nc(C2CC2)nc(N)c1Cl` [Compound 2, methyl 6-amino-5-chloro-2-cyclopropyl-4-pyrimidinecarboxylate]: the “STEME Obs” value with common chickweed (STEME) (30 DAA) came to 62%; with common chickweed (STEME) (42 DAA), 37%; with common chickweed (STEME) (46 DAA) it was 30%. Further, the “AMAVI Obs” value with slender amaranth (AMAVI) (15 DAA) came out at 90; in the data set with slender amaranth (AMAVI) (29 DAA) it was 60; in the data set with slender amaranth (AMAVI) (48 DAA) it was 40; in the data set on slender amaranth (AMAVI) (61 DAA), 0. For the same molecule, the “Postemergence KCHSC Obs” value in the data set on kochia (KCHSC) (Cpd 2 alone 4 g a.i./ha) was determined as 53; in the data set on kochia (KCHSC) (Cpd 2 alone 8 g a.i./ha) it was 60; in the data set with kochia (KCHSC) (Cpd 2 alone 16 g a.i./ha) it was 70. In addition, the “Postemergence AMARE Obs” value was found to be 43 in the data set on redroot pigweed (AMARE) (Cpd 2 alone 4 g a.i./ha), 62 in the data set with redroot pigweed (AMARE) (Cpd 2 alone 8 g a.i./ha) and 68 with redroot pigweed (AMARE) (Cpd 2 alone 16 g a.i./ha). Further, the “LAMAM Obs” value in data set [1] (7 DAA) came to 22%; in [1] (14 DAA), 27%; in [1] (23 DAA), 50%; in data set [1] (30 DAA), 65%; in data set [1] (57 DAA) it was 89%. Also, the “Postemergence HORVW Obs” value with winter barley (HORVW) (Cpd 2 alone 4 g a.i./ha) was 30; in the data set with winter barley (HORVW) (Cpd 2 alone 8 g a.i./ha), 35; in the data set on winter barley (HORVW) (Cpd 2 alone 16 g a.i./ha) it was 40. The SORVU Obs was 73% in the data set on sorghum (SORVU) (Cpd 2 32 g a.i./ha) and 96% with sorghum (SORVU) (Cpd 2 64 g a.i./ha). Besides, the “CHEAL Obs” value in data set [2] was 95%. In addition, the “VIOAR Obs (scale 0 to 100)” value in the data set with field violet (VIOAR) (Cpd 2 4 g a.i./ha) is 47; with field violet (VIOAR) (Cpd 2 8 g a.i./ha), 62; in the data set on field violet (VIOAR) (Cpd 2 16 g a.i./ha), 72. Also, the figures for the “Postemergence ABUTH Obs” value in the data set on velvetleaf (ABUTH) (alone at 15 g a.i./ha), in the data set on velvetleaf (ABUTH) (alone at 30 g a.i./ha) and in the data set on velvetleaf (ABUTH) (alone at 45 g a.i./ha) were 39, 58 and 67, respectively. The entries for the “Preemergence ABUTH Obs” value in the data set on velvetleaf (ABUTH) (alone at 15 g a.i./ha), in the data set on velvetleaf (ABUTH) (alone at 30 g a.i./ha) and in the data set on velvetleaf (ABUTH) (alone at 45 g a.i./ha) were 16, 26 and 28, respectively.
Consider `O=C(O)CNCP(=O)(O)O` [Glyphosate], for which the “STEME Obs” value in the data set with common chickweed (STEME) (30 DAA) is 100%; in the data set with common chickweed (STEME) (42 DAA), 88%; in the data set on common chickweed (STEME) (46 DAA) it was 100%. The “LAMAM Obs” value in [1] (7 DAA) worked out at 25%; in [1] (14 DAA) it was 37%; in [1] (23 DAA), 79%; in data set [1] (30 DAA), 95%; in data set [1] (57 DAA), 66%. Also, in data set [2], the “CHEAL Obs” value is on record as 0%.
